Data: patent US20110182954A1, “ORALLY-ADMINISTERED AGENT” (LINTEC Corporation, priority 2008, published 2011)

Assay: Viscosity of aqueous solution of constituent material (E-type viscometer)
Assay type: physicochemical
Conditions: for Water absorption promoter, Viscosity: aqueous solution of 5 mass % at 37° C., Examples 1-3, 7, 10-12 glycerin, other Examples the promoter other than glycerin; for Antiadhesive agent, Viscosity: aqueous solution of 5 mass % of the antiadhesive agent at 37° C.
Protocol: Tables 1 and 2 shown the constituent materials of the intestinal collapse-controlling layer, the gel-forming layer and the antiadhesive layer of the orally-administered agents obtained in the respective Examples and the respective Comparative Examples and the contents thereof. […] Furthermore, the viscosity of the water absorption promoter in the Table 1 and the viscosity of the antiadhesive agent in the Table 2 denote a viscosity at 37° C. of an aqueous solution of 5 mass % of the water absorption promoter and the antiadhesive agent, respectively. Each viscosity was measured with an E-type viscometer (a product of Tokimec, Inc.).

OC[C@@H](O)[C@@H](O)[C@H](O)[C@H](O)CO [Man, mannitol]
Water absorption promoter, Viscosity: 0.87 mPa · s | Antiadhesive agent, Viscosity: 0.87 mPa · s

OC[C@@H](O)[C@H](O)[C@@H](O)CO [Xyl, xylitol]
Water absorption promoter, Viscosity: 1.08 mPa · s | Antiadhesive agent, Viscosity: 0.87 mPa · s
